Laboratory results taken from patent US10786547B2, “Compositions, articles of manufacture and methods for treating cancer” (Biokine Therapeutics Ltd., priority 2015, dated 2020).
“Also recorded” adds a separate entry of the source. [ ]: non-standard residue; d: D form. The star is where a group is joined. Benzoyl(4-F) = O=C(c1ccc(F)cc1)*; Cit = NC(=O)NCCC[C@H](N)C(=O)O

Key:
[1] = test system: immune cells including immature stem/progenitor cells, T cells and NK cells; assay: in-vivo administration, mobilization of immune and stem/progenitor cells; settings: to the peripheral blood
[2] = in vivo
CXCR4 receptor = CXCR4 receptor (Homo sapiens, UniProt P61073); settings: cited from earlier work
[3] = test system: long term repopulating stem cells; settings: mice, single BL-8040 injection; cited from earlier work
[4] = test system: CD34+ hematopoietic stem/progenitor cells (HSPC); settings: multiple myeloma patients, combined treatment of BL-8040 and G-CSF, single aphaeresis procedure; cited from earlier work
[5] = test system: myeloid leukemia, hematopoietic tumors and non-small cell lung cancer; settings: cited from earlier work
[6] = test system: immune cells including immature stem/progenitor cells, T cells and NK cells; settings: "It has been shown"; cited from earlier work

Chain of CXCR4 receptor (P61073 whole entry): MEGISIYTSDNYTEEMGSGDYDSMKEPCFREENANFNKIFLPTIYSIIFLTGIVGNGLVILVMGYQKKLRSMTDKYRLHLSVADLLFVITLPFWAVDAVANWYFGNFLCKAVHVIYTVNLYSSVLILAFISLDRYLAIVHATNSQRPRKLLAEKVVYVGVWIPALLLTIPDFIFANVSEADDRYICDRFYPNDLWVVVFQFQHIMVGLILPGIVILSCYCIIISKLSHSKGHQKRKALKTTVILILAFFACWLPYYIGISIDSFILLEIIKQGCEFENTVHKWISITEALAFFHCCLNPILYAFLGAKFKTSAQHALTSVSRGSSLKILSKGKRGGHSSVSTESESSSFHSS

In the case of “4F-benzoyl-Arg-Arg-Nal-Cys-Tyr-Cit-Lys-DLys-Pro-Tyr-Arg-Cit-Cys-Arg-NH2 ({Benzoyl(4-F)}-RR[Nal]CY[Cit]K[dK]PYR[Cit]CR-NH2; cysteine pairing not given here) [BL-8040]”, the “mobilization of immune cells” value [1] is listed as “induces rapid mobilization of a variety of immune cells including immature stem/progenitor cells as well as fully differentiated T cells and NK cells; also recorded: induce rapid mobilization of hematopoietic stem/progenitor cells and mesenchymal stem cells as well as T cells, B cells, NK cells, NKT cells and ImDC to the peripheral blood”, the safety and tolerability [2] is listed as “safe and well tolerated” and the receptor occupancy (CXCR4 receptor; CXCR4 receptor) is listed as “long receptor occupancy”. For the same substance, the “affinity of binding to the CXCR4 receptor” value (CXCR4 receptor) was “high affinity”, the “mobilization of long term repopulating stem cells” value [3] was “mobilized long term repopulating stem cells sufficient for transplantation” and the “collection of CD34+ hematopoietic stem/progenitor cells (HSPC)” value [4] was “enabled the collection of high number of CD34+ hematopoietic stem/progenitor cells (HSPC) in a single aphaeresis procedure”. The toxicity against tumors [5] was “toxic against several tumors such as myeloid leukemia, hematopoietic tumors and non-small cell lung cancer” and the “mobilization of CD34+ hematopoietic stem/progenitor cells (HSPC)” value [6] was “induces mobilization of CD34+ hematopoietic stem/progenitor cells (HSPC) that can be further used for transplantation”.
